From publication PMC10489750, “Exploration of Baicalein-Core Derivatives as Potent Antifungal Agents: SAR and Mechanism Insights” (Molecules, 2023)

Biological target: T1, Eno1 (Candida albicans, UniProt P30575)
T1 sequence (P30575 1-440): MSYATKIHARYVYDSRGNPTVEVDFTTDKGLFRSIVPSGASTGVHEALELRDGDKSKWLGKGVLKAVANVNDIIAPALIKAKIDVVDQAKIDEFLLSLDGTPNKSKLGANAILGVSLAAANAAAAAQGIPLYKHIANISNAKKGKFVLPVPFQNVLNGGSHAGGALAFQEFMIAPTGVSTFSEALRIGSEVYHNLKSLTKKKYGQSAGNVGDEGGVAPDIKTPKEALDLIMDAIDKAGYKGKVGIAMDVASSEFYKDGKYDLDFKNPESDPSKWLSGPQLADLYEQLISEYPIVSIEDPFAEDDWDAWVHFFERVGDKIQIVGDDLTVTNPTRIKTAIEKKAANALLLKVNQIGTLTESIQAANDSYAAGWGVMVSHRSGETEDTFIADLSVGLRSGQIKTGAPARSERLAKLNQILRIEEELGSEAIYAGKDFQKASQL
Assay: in vitro enolase assay, […] compound, absorbance at […] nm, […] Eno1
Assay type: biochemical

## Nc1ccc(-c2cc(=O)c3c(O)c(O)c(O)cc3o2)cc1 [B5, 2-(4-aminophenyl)-5,6,7-trihydroxy-4H-chromen-4-one]
  in vitro enolase assay, 200 μM compound, absorbance at 240 nm, 30 nM Eno1: B5 exhibited some inhibitory ability in in vitro enzyme inhibition assay, although it was weaker than BE
